Laboratory results from patent US8299236B2, “Compositions and methods for enhancing delivery of nucleic acids into cells and for modifying expression of target genes in cells” (Marina Biotech, Inc., priority 2004, dated 2012).

Legend:
9 L/LacZ cells = experiment: Screening of siRNA/peptide complexes for FAM-siRNA uptake (flow cytometry, propidium iodide); assay type: cell-based; conditions: Table 6
mouse tail fibroblasts = experiment: siRNA uptake with siRNA/peptide complexes in murine primary fibroblasts; assay type: cell-based; conditions: Table 6
Method: Approximately 10,000 9 L/lacZ cells were plated per well in flat-bottom 96-well plates so that they would be ˜50% confluent the next day at the time of transfection. FAM-labeled siRNA and peptides were diluted in Opti-MEM® media (Invitrogen) at 2-fold the final concentration. Equal volumes of siRNA and peptide were mixed and allowed to complex 5-10 minutes at room temperature and then 50 μL added to cells, previously washed with PBS. Cells were transfected for 3 hours at 37° C., 5% CO2. Cells were washed with PBS, treated with trypsin and then analyzed by flow cytometry. siRNA uptake was measured by intensity of FAM fluorescence and cellular viability assessed by addition of propidium iodide.
The materials and methods used for these experiments are generally the same as described above, except that for the murine experiments 9 L/LacZ cells were replaced with mouse tail fibroblasts.
The uptake measurements were performed using mouse tail fibroblast cells.

hTNF-α = experiment: Plasma hTNF-α ELISA in human TNF-α expressing mice; assay type: in vivo, mouse; conditions: i.v., average of the mice
Description: During the injection periods, plasma samples were collected for ELISA testing (R&D Systems, Cat#SSTA00C), and paw scores were taken twice a week as an accepted index of RA disease progression and therapeutic efficacy.

[1] = system: transgenic mouse models of rheumatoid arthritis (RA) constitutively expressing human TNF-α; experiment: Transgenic mouse models of rheumatoid arthritis constitutively expressing human TNF-α; assay type: in vivo; conditions: twice weekly beginning at age 6 weeks; stabilization beginning at age 7 weeks
Method: One exemplary candidate siRNA/delivery peptide formulation was evaluated in two transgenic mouse models of rheumatoid arthritis (RA) constitutively expressing human TNF-α.

cells = experiment: Uptake of peptide-siRNA conjugate versus complex (Cy5 fluorescence, flow cytometry); assay type: cell-based; conditions: FIGS. 1 and 2
Method: Cells were plated the day before in 24-well plates so that they were ˜50-80% confluent at time of transfection. For complexes, siRNA and peptide were diluted in Opti-MEM® media (Invitrogen), then mixed and allowed to complex 5-10 minutes before adding to cells washed with PBS. Final concentration of siRNA was 500 nM at each peptide concentration (2-50 μM). The conjugate, also diluted in Opti-MEM® media, was added to cells at final concentrations ranging from 62.5 nM to 500 nM. At 500 nM concentration, we also combined with 20% FBS just before adding to washed cells. Cells were transfected for 3 hours at 37° C., 5% CO2. Cells were washed with PBS, treated with trypsin and then analyzed by flow cytometry. siRNA uptake was measured by intensity of Cy5 fluorescence and cellular viability assessed by addition of propidium iodide.

## AAVALLPAVLLALLAPRKKRRQRRRPPQC [PN27]
9 L/LacZ cells
  Percent Uptake, LacZ Cells: 86%
Mouse tail fibroblasts
  Percent Uptake, Primary MTF Cells: 61%

## Ac-KETWWETWWTEWSQPKKKRKV-NH2 [PN182]
9 L/LacZ cells
  Percent Uptake, LacZ Cells: 85%

## H-AAVALLPAVLLALLAPSGASGLDKRDYV-NH2 [PN29]
9 L/LacZ cells
  Percent Uptake, LacZ Cells: 87%

## H-GALFLGFLGAAGSTMGAWSQPKSKRKVC-NH2 [PN453]
Mouse tail fibroblasts
  Percent Uptake, Primary MTF Cells: 79%

## H-RGSRRAVTRAQRRDGRRRRRSRRESYSVYVYRVLRQ-NH2 [PN404]
Mouse tail fibroblasts
  Percent Uptake, Primary MTF Cells: 50%

## H-RRRQRRKRGGDIMGEWGNEIFGAIAGFLG-NH2 [PN250]
9 L/LacZ cells
  Percent Uptake, LacZ Cells: 99%
Mouse tail fibroblasts
  Percent Uptake, Primary MTF Cells: 86%

## NH2-LLETLLKPFQCRICMRNFSTRQARRNHRRRHRR-amide (H-LLETLLKPFQCRICMRNFSTRQARRNHRRRHRR-NH2; cysteine pairing not given here) [PN202]
9 L/LacZ cells
  Percent Uptake, LacZ Cells: 71%

## NH2-RKKRRQRRRPPQCAAVALLPAVLLALLAP-amide (H-RKKRRQRRRPPQCAAVALLPAVLLALLAP-NH2) [PN28]
9 L/LacZ cells
  Percent Uptake, LacZ Cells: 79%
Mouse tail fibroblasts
  Percent Uptake, Primary MTF Cells: 81%

## Ramicade: the RA drug Ramicade (5 mg/kg); TNF-α neutralizing agent infliximab
hTNF-α; age 7 weeks
  hTNF-α ELISA (plasma): 102.24 pg/mL
hTNF-α; age 8 weeks
  hTNF-α ELISA (plasma): 39.27 pg/mL
hTNF-α; age 9 weeks
  hTNF-α ELISA (plasma): 25.80 pg/mL
[1]
  RA score (paw and joint inflammation): RA score stabilization

## conjugate: TAT-HA peptide (SEQ ID NO: 35) covalently conjugated to the siRNA sense strand (SEQ ID NO: 34) (chain 1 gcaagcugacccugaaguucau; chain 2 RRRQRRKRGGDIMGEWGNEIFGAIAGFLG; peptide-siRNA conjugate)
cells
  siRNA uptake and mean fluorescence, conjugate compared to complexing peptide and RNA: higher uptake and greater mean fluorescence uptake
